For the assay, the target named is T1, PKCβII/RACK1 interaction (Homo sapiens, UniProt P63244).
T1 construct: 6-His
In words: PKCβII/RACK1 in vitro binding assay. The conditions noted are these: Figure 2B. The method, then:
This assay was similar to the PKCε/RACK2 binding assay described above. 6-his-tagged RACK1 was cloned into a pET-30a(+) vector (Novagen, Merck KGaA, Darmstadt, Germany) and purified with Ni-NTA agarose (Qiagen, Hilden, Germany). Final elution was performed with 500 nM imidazole in elution buffer (20 mM Tris-HCl/300 mM NaCl, 20% glycerol, pH 7.5). The integrity of purified recombinant protein was analyzed by Coomassie Blue staining and Western blotting. Then 200 ng RACK1 was coated onto 96-well EIA/RIA high binding plates (Costar, Corning, New York, NY) at 4 °C on a shaker with gentle agitation overnight. Compound 8 was added at room temperature for 30 min. Then 500 ng of recombinant GST-tagged PKCβII (ProQinase) was activated with CaCl2, phosphatidylserine, and TPA for 10 min. The RACK1-coated plates with and without 8 were incubated for 1 h with activated PKCβII. The interaction was determined with a primary rabbit anti-GST antibody (Santa Cruz) and corresponding HRP-conjugated goat anti-rabbit HRP conjugated secondary antibody (Santa Cruz) as described above for the PKCε/RACK2 interaction.

Take `CC(=O)c1cccc(NC(=O)c2sc3nc4cc5c(cc4cc3c2N)OCCO5)c1` [Compound 8, N-(3-acetylphenyl)-9-amino-2,3-dihydro-1,4-dioxino[2,3-g]thieno[2,3-b]quinoline-8-carboxamide]: the “Prevention of the PKCβII/RACK1 interaction” value is recorded as “does not prevent”.

Values taken from article PMC4001449, “Thienoquinolines as Novel Disruptors of the PKCε/RACK2 Protein–Protein Interaction” (Journal of Medicinal Chemistry, 2014).
